Data on 2 compounds can be found in patent US20090074676A1, “Inhibition of p38 MAPK For Treatment Of Obesity” (SMITHKLINE BEECHAM CORPORATION, priority 2005, published 2009).

One assay deals with 3T3-L1 adipocytes. The note with it: by reducing GLUT4 activity; cited from earlier work.
The test system of a further assay is DIO AKR mice. The experiment in a line: Experiment 2: two week treatment of 24-25 weeks old male DIO AKR mice on high fat diet. The format is in vivo. The conditions noted are these: 10 & 30 mg/kg, PO, BID. The method, then:
Compound 2 was administered for a two week treatment in 24-25 weeks old male DIO AKR mice (older). Methods: Male AKR mice, from Jackson Laboratories, group housed, 24-25 weeks old, on high fat diet (HFD, D12331 rodent diet, 58 kcal % from fat and sucrose. Research Diets, Inc., New Brunswick, N.J.) started at 4-5 weeks old. A parallel group of mice on normal diet (ND, Purina 5001) was served as diet control. During the last 2 weeks of diet period, mice on HFD were treated with vehicle (0.5% tragacanth in 0.03N HCl), Compound 2 administered at 10, and 30 mg/kg, BID, PO (10 ml/kg). Mice on ND were treated with vehicle. Mouse number in each group was 7-10. Body weight (BW), body composition, postprandial blood glucose, and fasting serum insulin were measured.

Assay [1] relates to diet-induced obese (DIO) AKR mice. Description: Experiment 1: four weeks treatment of 18-19 weeks old male DIO AKR mice on high fat diet (body weight, body composition, glucose, ITT). The format is in vivo. The method, then: Compound 2 was administered for four weeks treatment in 18-19 weeks old male, diet-induced obese (DIO) AKR mice. Methods: Male AKR mice, from Jackson Laboratories, group housed, 18-19 weeks old, on high fat diet (HFD, D12331 rodent diet, 58 kcal % from fat and sucrose. Research Diets, Inc., New Brunswick, N.J.) started at 4-5 weeks old. A parallel group of mice on normal diet (ND, Purina 5001) was served as diet control. During the last 4 weeks of diet period, mice on HFD were treated with vehicle (0.5% tragacanth in 0.03N HCl), Compound 2 was administered at 3 mg/kg, and 10 mg/kg, and water (control for vehicle), twice daily (BID), orally (PO) at 10 ml/kg. Mice on normal diet (ND) were treated with vehicle. Mouse number in each group was 7-10. Body weight (BW) was monitored once a week. Body composition was monitored every other week by using EchoMRI™ Whole Body Composition Analyzer (Echo Medical Systems, Houston, Tex.). Fasting blood glucose was measured at 2 weeks of treatment. Postprandial blood glucose was measured at before and end of treatment. Fasting serum insulin was measured at dosing 2 weeks via orbital bleeding. Serum IL-6 was measured at the end of treatment under fasting condition. Insulin tolerance test (ITT) was also performed at end of the diet period.

In another assay the test system is DIO C57BL/6 mice. Description: Experiment 3: four weeks treatment of male DIO C57BL/6 mice on high fat diet (body weight, body composition, glucose). The format is in vivo. The conditions noted are these: PO, BID, 4 weeks. The method, then:
Methods: Male C57BL/6 mice, from Jackson Laboratories, group housed, 18-19 weeks old, on high fat diet (HFD, D12331 rodent diet, 58 kcal % from fat and sucrose. Research Diets, Inc., New Brunswick, N.J.) started at 4-5 weeks old. A parallel group of mice on normal diet (ND, Purina 5001) was served as diet control. During the last 4 weeks of diet period, mice on HFD were treated with vehicle (0.5% tragacanth in 0.03N HCl), Compound 2 administered at 3, 10, and 30 mg/kg, BID, PO (10 ml/kg). Mice on ND were treated with vehicle. Mouse number in each group was 8-10. Body weight (BW), body composition, fasting blood glucose, postprandial blood glucose and insulin were measured. […] Epididymal fat pad was collected to determine PPARγ and GLUT4 gene expression.

SMILES strings stand for the structures. “Also recorded” adds a separate entry of the source.

Take `C[S+]([O-])c1ccc(-c2nc(-c3ccc(F)cc3)c(-c3ccncc3)[nH]2)cc1` (stereo not shown) [Compound 1, 4-(4-Fluorophenyl)-2-(4-methylsulfinylphenyl)-5-(4-pyridyl)imidazole]: the insulin-induced glucose uptake entry with 3T3-L1 adipocytes was “reduced insulin-induced glucose uptake”.
Turning to `COc1nccc(-c2c(-c3ccc(F)cc3)ncn2[C@H]2CC[C@H](O)CC2)n1` [Compound 2, trans-1-(4-hydroxycyclohexyl)-4-(4-fluorophenyl)-5-[(2-methoxy)pyrimidin-4-yl]imidazole], the blood glucose entry is recorded as “no effect; also recorded: did not have any significant effect” in the assay with DIO AKR mice (2 weeks); “no effect; also recorded: did not have any significant effect” in assay [1] (3 & 10 mg/kg, PO, BID, 4 weeks); “no effect; also recorded: did not have any significant effect” in the assay on DIO C57BL/6 mice. Also, the “reduction in body weight (BW)” value in the assay on DIO AKR mice (last 2 weeks of 20 weeks on HFD, p<0.05) is on record as 4-9%; in assay [1] (3 & 10 mg/kg, PO, BID, last 4 weeks of 14 weeks on HFD, p<0.05), 4-9%. For the same compound, in the assay on DIO AKR mice (more pronounced over the 2 weeks), the “time at which the effect on BW and fat mass appeared” value was 4 days. The lean mass entry in assay [1] (3 & 10 mg/kg, PO, BID, 4 weeks) is “no effect”; in the assay with DIO C57BL/6 mice it was “no effect”. For the same compound, the “response to an insulin tolerance test (ITT)” value in assay [1] (end of diet period, insulin i.p. 0.75 U/kg) is “did not have any significant effect”.
